Experiments:
PenA1 = target: T1, PenA1 (Burkholderia multivorans, UniProt A0A0H3KN52); assay: steady-state inhibition kinetics; format: biochemical; conditions: read-out: PenA1; covalent acyl-enzyme; slow substrate; partition ratio method at 15 min; 10 mM PBS pH 7.4, ~25 °C (stated for hydrolysis curves)
T1 construct: gene ampC; purified class A beta-lactamase
Source text: steady-state inhibition kinetics on PenA1

AmpC1 = target: T2, AmpC1 (Burkholderia multivorans, UniProt A0A0H3KQ39); assay: steady-state inhibition kinetics; format: biochemical; conditions: covalent acyl-enzyme; not hydrolysed; 10 mM PBS pH 7.4, ~25 °C (stated for hydrolysis curves)
T2 construct: gene ampC; purified class C beta-lactamase
T2 sequence (A0A0H3KQ39 entry or part of it): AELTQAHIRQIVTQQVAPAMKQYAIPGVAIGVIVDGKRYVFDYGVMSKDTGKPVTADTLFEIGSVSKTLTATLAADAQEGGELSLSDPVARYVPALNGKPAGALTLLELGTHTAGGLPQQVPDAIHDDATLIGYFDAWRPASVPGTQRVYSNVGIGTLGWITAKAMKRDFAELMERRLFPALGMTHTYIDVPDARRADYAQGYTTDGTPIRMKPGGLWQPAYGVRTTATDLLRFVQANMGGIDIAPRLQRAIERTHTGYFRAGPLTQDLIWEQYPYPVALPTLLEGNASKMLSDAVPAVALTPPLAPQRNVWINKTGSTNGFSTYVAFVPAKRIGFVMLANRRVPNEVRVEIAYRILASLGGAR
Source text: steady-state inhibition kinetics on AmpC1

T1 sequence (A0A0H3KN52 entry or part of it): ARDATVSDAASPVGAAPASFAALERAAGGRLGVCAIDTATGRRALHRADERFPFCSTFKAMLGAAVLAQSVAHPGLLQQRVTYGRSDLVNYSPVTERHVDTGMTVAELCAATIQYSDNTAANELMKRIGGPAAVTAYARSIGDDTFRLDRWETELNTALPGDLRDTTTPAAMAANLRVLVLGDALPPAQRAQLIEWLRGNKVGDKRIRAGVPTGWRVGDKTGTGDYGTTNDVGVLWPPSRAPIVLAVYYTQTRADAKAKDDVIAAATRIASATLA

With `C[C@@H](O)[C@H]1C(=O)N2C(C(=O)O)=C(SC3CN(C4=NCCS4)C3)[C@H](C)[C@H]12` [tebipenem] the Ki (PenA1) was 4.7 ± 0.5 µM and the Ki (AmpC1) was 22 ± 2 µM.
